Biological target: T1, human TLR7 (Homo sapiens, UniProt Q9NYK1)
T1 sequence (Q9NYK1 27-1049): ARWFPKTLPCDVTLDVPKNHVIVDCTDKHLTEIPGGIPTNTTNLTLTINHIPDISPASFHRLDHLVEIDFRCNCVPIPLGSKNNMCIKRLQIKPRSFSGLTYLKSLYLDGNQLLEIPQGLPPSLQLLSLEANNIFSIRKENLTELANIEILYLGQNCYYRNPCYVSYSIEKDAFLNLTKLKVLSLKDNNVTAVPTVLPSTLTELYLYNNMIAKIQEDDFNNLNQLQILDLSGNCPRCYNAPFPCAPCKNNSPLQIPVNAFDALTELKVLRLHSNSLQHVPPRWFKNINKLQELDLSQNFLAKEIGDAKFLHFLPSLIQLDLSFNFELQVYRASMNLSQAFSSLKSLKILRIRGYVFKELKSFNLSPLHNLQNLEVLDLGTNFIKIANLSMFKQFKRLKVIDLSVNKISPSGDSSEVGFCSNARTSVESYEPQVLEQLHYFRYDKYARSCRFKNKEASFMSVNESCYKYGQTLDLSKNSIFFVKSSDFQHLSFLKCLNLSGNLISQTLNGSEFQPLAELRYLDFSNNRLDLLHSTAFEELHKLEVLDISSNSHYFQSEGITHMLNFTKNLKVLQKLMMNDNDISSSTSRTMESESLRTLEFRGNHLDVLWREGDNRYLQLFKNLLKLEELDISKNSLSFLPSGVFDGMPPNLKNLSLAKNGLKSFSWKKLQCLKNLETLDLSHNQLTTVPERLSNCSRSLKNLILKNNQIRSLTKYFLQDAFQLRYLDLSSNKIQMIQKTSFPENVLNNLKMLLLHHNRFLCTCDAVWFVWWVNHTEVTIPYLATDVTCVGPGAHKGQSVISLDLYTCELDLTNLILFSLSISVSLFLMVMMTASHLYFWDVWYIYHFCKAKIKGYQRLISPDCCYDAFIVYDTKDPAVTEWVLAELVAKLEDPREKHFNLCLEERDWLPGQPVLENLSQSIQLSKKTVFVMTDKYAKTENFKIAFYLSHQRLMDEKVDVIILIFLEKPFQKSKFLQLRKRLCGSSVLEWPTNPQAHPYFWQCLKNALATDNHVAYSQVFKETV
Assay: HEK293-Blue-hTLR-7 cells assay
Type: cell-based
Conditions: HEK293-Blue-hTLR7 cells, SEAP reporter, R848 stimulation, 20 hrs
Description: HEK293-Blue-hTLR-7 Cells Assay:
A stable HEK293-Blue-hTLR-7 cell line was purchased from InvivoGen (Cat. #: hkb-htlr7, San Diego, Calif., USA). These cells were originally designed for studying the stimulation of human TLR7 by monitoring the activation of NF-κB. A SEAP (secreted embryonic alkaline phosphatase) reporter gene was placed under the control of the IFN-β minimal promoter fused to five NF-κB and AP-1-binding sites. The SEAP was induced by activating NF-κB and AP-1 via stimulating HEK-Blue hTLR7 cells with TLR7 ligands. Therefore the reporter expression was declined by TLR7 antagonist under the stimulation of a ligand, such as R848 (Resiquimod), for incubation of 20 hrs. The cell culture supernatant SEAP reporter activity was determined using QUANTI-Blue™ kit (Cat. #: rep-qb1, Invivogen, San Diego, Ca, USA) at a wavelength of 640 nm, a detection medium that turns purple or blue in the presence of alkaline phosphatase.
HEK293-Blue-hTLR7 cells were incubated at a density of 250,000˜450,000 cells/mL in a volume of 170 μL in a 96-well plate in Dulbecco's Modified Eagle's medium (DMEM) containing 4.5 g/L glucose, 50 U/mL penicillin, […], […], 2 mM L-glutamine, 10% (v/v) heat-inactivated fetal bovine serum with addition of 20 sL test compound in a serial dilution in the presence of final DMSO at 1% and 10 μL of 20 uM R848 in above DMEM, perform incubation under 37° C. in a CO2 incubator for 20 hrs. Then 20 μL of the supernatant from each well was incubated with 180 sL Quanti-blue substrate solution at 37° C. for 2 hrs and the absorbance was read at 620-655 nm using a spectrophotometer. The signalling pathway that TLR7 activation leads to downstream NF-κB activation has been widely accepted, and therefore similar reporter assay was modified for evaluating TLR7 antagonist.

| SMILES | IC50 [µM] |
| --- | --- |
| CN1CCC(NC(=O)[C@@H]2CN(c3ccc(C#N)c4ncccc34)C[C@H]2C2CC2)CC1 (relative stereo) [Example 14, Trans-1-(8-cyano-5-quinolyl)-4-cyclopropyl-N-(1-methyl-4-piperidyl)pyrrolidine-3-carboxamide] | 0.02 |
| CN1CCC(NC(=O)[C@@H]2CN(c3ccc(C#N)c4ncccc34)C[C@H]2C(F)(F)F)CC1 (relative stereo) [Example 17, Trans-1-(8-cyano-5-quinolyl)-N-(1-methyl-4-piperidyl)-4-(trifluoromethyl)pyrrolidine-3-carboxamide] | 0.022 |
| C[C@@H]1CN(c2ccc(C#N)c3ncccc23)C[C@H]1C(=O)NC1CCN(C)CC1 (relative stereo) [Example 28] | 0.039 |
| CC[C@@H]1CN(c2ccc(C#N)c3ncccc23)C[C@H]1C(=O)NC1CCN(C)CC1 (relative stereo) [Example 29, Trans-1-(8-cyano-5-quinolyl)-4-ethyl-N-(1-methyl-4-piperidyl)pyrrolidine-3-carboxamide] | 0.04 |
| C[C@@H]1CN(c2ccc(C#N)c3ncccc23)C[C@H]1C(=O)N1CCC2(CCNCC2)CC1 (relative stereo) [Example 32, Trans-5-[3-(3,9-diazaspiro[5.5]undecane-3-carbonyl)-4-methyl-pyrrolidin-1-yl]quinoline-8-carbonitrile] | 0.044 |
| CC(C)[C@@H]1CN(c2ccc(C#N)c3ncccc23)C[C@H]1C(=O)NC1CCN(C)CC1 (relative stereo) [Example 37, Trans-1-(8-cyano-5-quinolyl)-4-isopropyl-N-(1-methyl-4-piperidyl)pyrrolidine-3-carboxamide] | 0.059 |
| CN1CCC(NC(=O)[C@@H]2CN(c3ccc(C#N)c4ncccc34)C[C@H]2C(F)F)CC1 (relative stereo) [Example 40, Trans-1-(8-cyano-5-quinolyl)-4-(difluoromethyl)-N-(1-methyl-4-piperidyl)pyrrolidine-3-carboxamide] | 0.079 |
| N[C@@H]1CCC[C@H](NC(=O)C2CN(c3ccc(C(F)(F)F)c4nccnc34)CC23CC3)C1 (relative stereo) [Example 43, Cis-N-(3-aminocyclohexyl)-5-[8-(trifluoromethyl)quinoxalin-5-yl]-5-azaspiro[2.4]heptane-7-carboxamide] | 0.081 |
| CN1CCC(NC(=O)[C@@H]2CN(c3ccc(Cl)c4ncccc34)C[C@H]2C(F)(F)F)CC1 (relative stereo) [Example 46, Trans-1-(8-chloro-5-quinolyl)-N-(1-methyl-4-piperidyl)-4-(trifluoromethyl)pyrrolidine-3-carboxamide] | 0.108 |
| C[C@@H]1CN(c2ccc(C#N)c3ncccc23)C[C@H]1C(=O)N1CCC2(CCNC2)C1 (relative stereo) [Example 53, Trans-5-[3-(2,7-diazaspiro[4.4]nonane-2-carbonyl)-4-methyl-pyrrolidin-1-yl]quinoline-8-carbonitrile] | 0.226 |
| CN1CCC(NC(=O)C2CN(c3ccc(C#N)c4nccnc34)CC23CC3)CC1 (single isomer, unassigned) [Example 7A, 5-(8-Cyanoquinoxalin-5-yl)-N-(1-methyl-4-piperidyl)-5-azaspiro[2.4]heptane-7-carboxamide] | 0.004 |
| CN1CCC(NC(=O)C2CN(c3ccc(C#N)c4nccnc34)CC23CC3)CC1 (single isomer, unassigned) [Example 7B, 5-(8-Cyanoquinoxalin-5-yl)-N-(1-methyl-4-piperidyl)-5-azaspiro[2.4]heptane-7-carboxamide] | 0.006 |
| N#Cc1ccc(N2CC(C(=O)NC3CCCNCC3)C(C(F)(F)F)C2)c2cccnc12 (single isomer, unassigned) [Example 30A, N-(azepan-4-yl)-1-(8-cyano-5-quinolyl)-4-(trifluoromethyl)pyrrolidine-3-carboxamide] | 0.041 |
| N#Cc1ccc(N2CC(C(=O)NC3CCCNCC3)C(C(F)(F)F)C2)c2cccnc12 (single isomer, unassigned) [Example 30B, N-(azepan-4-yl)-1-(8-cyano-5-quinolyl)-4-(trifluoromethyl)pyrrolidine-3-carboxamide] | 0.05 |
| CN1CCC(NC(=O)C2CN(c3ccc(C#N)c4ncccc34)CC23CC3)CC1 (single isomer, unassigned) [Example 41A, 5-(8-Cyano-5-quinolyl)-N-(1-methyl-4-piperidyl)-5-azaspiro[2.4]heptane-7-carboxamide] | 0.079 |
| C[C@@H]1CN(c2ccc(C#N)c3ncccc23)C[C@H]1C(=O)NC1CCCNCC1 (single isomer, unassigned) [Example 52A, Trans-N-(azepan-4-yl)-1-(8-cyano-5-quinolyl)-4-methyl-pyrrolidine-3-carboxamide] | 0.203 |
| C[C@@H]1CN(c2ccc(C#N)c3ncccc23)C[C@H]1C(=O)NC1CCCNCC1 (single isomer, unassigned) [Example 52B, Trans-N-(azepan-4-yl)-1-(8-cyano-5-quinolyl)-4-methyl-pyrrolidine-3-carboxamide] | 0.219 |
| N#Cc1ccc(N2CC(C(=O)NC[C@H]3CNCCO3)C3(CC3)C2)c2nccnc12 (single isomer, unassigned) [Example 70A] | 0.019 |
| N#Cc1ccc(N2CC(C(=O)NC[C@H]3CNCCO3)C3(CC3)C2)c2nccnc12 (single isomer, unassigned) [Example 70B] | 0.233 |
| N#Cc1ccc(N2CC(C(=O)NC[C@@H]3CNCCO3)C3(CC3)C2)c2nccnc12 (single isomer, unassigned) [Example 71A] | 0.021 |
| N#Cc1ccc(N2CC(C(=O)NC[C@@H]3CNCCO3)C3(CC3)C2)c2nccnc12 (single isomer, unassigned) [Example 71B] | 0.202 |
| CN1CCC(NC(=O)[C@H]2CN(c3ccc(C#N)c4nccnc34)C[C@@H]2C(F)(F)F)CC1 [Example 1, (3R,4R)-1-(8-cyanoquinoxalin-5-yl)-N-(1-methyl-4-piperidyl)-4-(trifluoromethyl) pyrrolidine-3-carboxamide] | 0.003 |
| CN1CCC(NC(=O)[C@H]2CN(c3ccc(C(F)(F)F)c4nccnc34)C[C@@H]2C(F)(F)F)CC1 [Example 2, (3R,4R)—N-(1-methyl-4-piperidyl)-4-(trifluoromethyl)-1-[8-(trifluoromethyl)quinoxalin-5-yl]pyrrolidine-3-carboxamide] | 0.004 |
| C[C@H]1CN(c2ccc(C#N)c3nccnc23)C[C@@H]1C(=O)NC1CCN(C)CC1 [Example 3, (3R,4R)-1-(8-cyanoquinoxalin-5-yl)-4-methyl-N-(1-methyl-4-piperidyl)pyrrolidine-3-carboxamide] | 0.004 |
| CN1CCC(NC(=O)[C@H]2CN(c3ccc(C#N)c4ncccc34)C[C@@H]2C(F)(F)F)CC1 [Example 4, (3R,4R)-1-(8-cyano-5-quinolyl)-N-(1-methyl-4-piperidyl)-4-(trifluoromethyl)pyrrolidine-3-carboxamide] | 0.009 |
| C[C@H]1CN(c2ccc(C(F)(F)F)c3nccnc23)C[C@@H]1C(=O)NC1CCN(C)CC1 [Example 5, (3R,4R)-4-methyl-N-(1-methyl-4-piperidyl)-1-[8-(trifluoromethyl)quinoxalin-5-yl]pyrrolidine-3-carboxamide] | 0.008 |
